Measurements as given in US7517874B2 (priority 2007, dated 2009).
Read-outs that look alike come from different tables or passages of the source.

Tests used:
[1] = molecular target: human CB1 receptor (hCB1) (Homo sapiens, UniProt P21554); experiment: cell-based; format: cell-based; conditions: for +/− HCB1: agonist or inverse agonist at hCB1
In short: (§1)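 Agonism or inverse agonism was assessed as change in intracellular cAMP in CHO-K1 cells expressing human CB1 or rat CB2 (genomic DNA, pcDNA3.1).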

[2] = molecular target: T1, rat CB2 receptor (rCB2) (Rattus norvegicus, UniProt Q9QZN9); experiment: cell-based; format: cell-based; conditions: for +/− RCB2: agonist or inverse agonist at rCB2
T1 sequence (Q9QZN9 1-360): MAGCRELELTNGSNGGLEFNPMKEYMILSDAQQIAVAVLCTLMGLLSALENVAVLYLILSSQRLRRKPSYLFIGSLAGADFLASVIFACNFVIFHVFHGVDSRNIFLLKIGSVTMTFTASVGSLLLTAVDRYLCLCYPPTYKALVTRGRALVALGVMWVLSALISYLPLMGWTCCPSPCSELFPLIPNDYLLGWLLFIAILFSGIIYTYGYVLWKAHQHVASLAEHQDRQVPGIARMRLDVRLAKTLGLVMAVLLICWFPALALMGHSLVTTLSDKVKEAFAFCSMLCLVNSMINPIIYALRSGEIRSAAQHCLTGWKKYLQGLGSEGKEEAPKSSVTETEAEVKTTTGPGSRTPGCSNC
In short: as §1

[3] = groups >100 nM-10 μM and >10 μM, cAMP, CHO-K1 hCB1, read-out: EC50 HCB1

human CB1 receptor (hCB1), sequence (P21554 whole entry): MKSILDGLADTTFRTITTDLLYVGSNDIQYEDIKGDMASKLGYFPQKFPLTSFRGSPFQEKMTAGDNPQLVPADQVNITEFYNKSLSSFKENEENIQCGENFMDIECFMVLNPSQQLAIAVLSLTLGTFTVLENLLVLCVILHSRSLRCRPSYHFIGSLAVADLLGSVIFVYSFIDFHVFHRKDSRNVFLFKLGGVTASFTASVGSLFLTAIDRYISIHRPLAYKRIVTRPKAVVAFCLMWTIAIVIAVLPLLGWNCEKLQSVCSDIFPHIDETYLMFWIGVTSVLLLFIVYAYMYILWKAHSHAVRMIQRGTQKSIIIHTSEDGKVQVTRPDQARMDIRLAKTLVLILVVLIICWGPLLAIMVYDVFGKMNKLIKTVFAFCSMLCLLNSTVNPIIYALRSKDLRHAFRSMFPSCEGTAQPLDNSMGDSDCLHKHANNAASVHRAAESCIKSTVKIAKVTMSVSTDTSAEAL

SMILES: CNC(=O)[C@H](CC(C)C)NC(=O)c1nc(-c2ccccc2)n2c1CN(C)CC2 [Compound 275, (S)-7-methyl-N-(4-methyl-1-(methylamino)-1-oxopentan-2-yl)-3-phenyl-5,6,7,8-tetrahydroimidazo[1,5-a]pyrazine-1-carboxamide]
- EC50 [1]: > 10000 nM
- +/− RCB2 [2]: +

SMILES: CNC(=O)[C@H](CC(C)C)NC(=O)c1nc(-c2ccc(Cl)cc2F)n2c1CN(C)CC2 [Compound 276, (S)-3-(4-chloro-2-fluorophenyl)-7-methyl-N-(4-methyl-1-(methylamino)-1-oxopentan-2-yl)-5,6,7,8-tetrahydroimidazo[1,5-a]pyrazine-1-carboxamide]
- EC50 [1]: > 10000 nM
- +/− RCB2 [2]: −

SMILES: CNC(=O)[C@H](CC(C)C)NC(=O)c1nc(-c2ccc(Cl)c(F)c2)n2c1CN(C)CC2 [Compound 277, (S)-3-(4-chloro-3-fluorophenyl)-7-methyl-N-(4-methyl-1-(methylamino)-1-oxopentan-2-yl)-5,6,7,8-tetrahydroimidazo[1,5-a]pyrazine-1-carboxamide]
- EC50 [1]: > 10000 nM
- +/− RCB2 [2]: −

SMILES: CNC(=O)[C@H](CC(C)C)NC(=O)c1nc(-c2ccc(F)c(F)c2)n2c1CN(C)CC2 [Compound 278, (S)-3-(3,4-difluorophenyl)-7-methyl-N-(4-methyl-1-(methylamino)-1-oxopentan-2-yl)-5,6,7,8-tetrahydroimidazo[1,5-a]pyrazine-1-carboxamide]
- EC50 [1]: > 10000 nM
- +/− RCB2 [2]: +

SMILES: CNC(=O)[C@H](CC(C)C)NC(=O)c1nc(C2=CCCC2)n2c1CN(C)CC2 [Compound 279, (S)-3-cyclopentenyl-7-methyl-N-(4-methyl-1-(methylamino)-1-oxopentan-2-yl)-5,6,7,8-tetrahydroimidazo[1,5-a]pyrazine-1-carboxamide]
- +/− HCB1 [1]: +
- +/− RCB2 [2]: +

SMILES: CNC(=O)[C@H](CC(C)C)NC(=O)c1nc(C2=CCCCO2)n2c1CN(C)CC2 [Compound 280, (S)-3-(3,4-dihydro-2H-pyran-6-yl)-7-methyl-N-(4-methyl-1-(methylamino)-1-oxopentan-2-yl)-5,6,7,8-tetrahydroimidazo[1,5-a]pyrazine-1-carboxamide]
- EC50 [1]: > 10000 nM
- +/− RCB2 [2]: +

SMILES: CN1CCn2c(-c3ccccc3)nc(C(=O)N[C@H](C(=O)O)C(C)(C)C)c2C1 [Compound 281, (S)-3,3-dimethyl-2-(7-methyl-3-phenyl-5,6,7,8-tetrahydroimidazo[1,5-a]pyrazine-1-carboxamido)butanoic acid]
- EC50 [1]: > 10000 nM
- +/− RCB2 [2]: +

SMILES: Cc1noc([C@@H](NC(=O)c2nc(-c3ccccc3)n3c2CNCC3)C(C)(C)C)n1 [Compound 282, (S)-N-(2,2-dimethyl-1-(3-methyl-1,2,4-oxadiazol-5-yl)propyl)-3-phenyl-5,6,7,8-tetrahydroimidazo[1,5-a]pyrazine-1-carboxamide]
- EC50 [1]: > 10000 nM
- EC50 [2]: > 10 µM

SMILES: CN1CCn2c(-c3ccccc3)nc(C(=O)N[C@H](c3nc(C(C)(C)C)no3)C(C)(C)C)c2C1 [Compound 283, (S)-N-(1-(3-tert-butyl-1,2,4-oxadiazol-5-yl)-2,2-dimethylpropyl)-7-methyl-3-phenyl-5,6,7,8-tetrahydroimidazo[1,5-a]pyrazine-1-carboxamide]
- EC50 [1]: > 10000 nM
- +/− RCB2 [2]: −

SMILES: CC(C)(C)c1noc([C@@H](NC(=O)c2nc(-c3ccccc3)n3c2CN(C2CC2)CC3)C(C)(C)C)n1 [Compound 284, (S)-N-(1-(3-tert-butyl-1,2,4-oxadiazol-5-yl)-2,2-dimethylpropyl)-7-cyclopropyl-3-phenyl-5,6,7,8-tetrahydroimidazo[1,5-a]pyrazine-1-carboxamide]
- EC50 [1]: > 10000 nM
- +/− RCB2 [2]: −

SMILES: CN1CCn2c(-c3ccccc3)nc(C(=O)N[C@H](C(N)=O)C(C)(C)C)c2C1 [Compound 285, (S)-N-(1-amino-3,3-dimethyl-1-oxobutan-2-yl)-7-methyl-3-phenyl-5,6,7,8-tetrahydroimidazo[1,5-a]pyrazine-1-carboxamide]
- EC50 [1]: > 10000 nM
- EC50 [2]: > 10 µM

SMILES: CNC(=O)[C@@H](NC(=O)c1nc(/C=C/CN2CCOCC2)n2c1CN(C)CC2)C(C)(C)C [Compound 286, (S,E)-N-(3,3-dimethyl-1-(methylamino)-1-oxobutan-2-yl)-7-methyl-3-(3-morpholinoprop-1-enyl)-5,6,7,8-tetrahydroimidazo[1,5-a]pyrazine-1-carboxamide]
- EC50 [1]: > 10000 nM
- +/− RCB2 [2]: +

SMILES: CNC(=O)[C@@H](NC(=O)c1nc(/C=C/CN2CCCCC2)n2c1CN(C)CC2)C(C)(C)C [Compound 287, (S,E)-N-(3,3-dimethyl-1-(methylamino)-1-oxobutan-2-yl)-7-methyl-3-(3-(piperidin-1-yl)prop-1-enyl)-5,6,7,8-tetrahydroimidazo[1,5-a]pyrazine-1-carboxamide]
- EC50 [1]: > 10000 nM
- +/− RCB2 [2]: +

SMILES: CNC(=O)[C@@H](NC(=O)c1nc(/C=C/CN2CCCC2)n2c1CN(C)CC2)C(C)(C)C [Compound 288, (S,E)-N-(3,3-dimethyl-1-(methylamino)-1-oxobutan-2-yl)-7-methyl-3-(3-(pyrrolidin-1-yl)prop-1-enyl)-5,6,7,8-tetrahydroimidazo[1,5-a]pyrazine-1-carboxamide]
- EC50 [1]: > 10000 nM
- +/− RCB2 [2]: −

SMILES: CNC(=O)[C@@H](NC(=O)c1nc(C(=O)c2ccccc2)n2c1CN(C)CC2)C(C)(C)C [Compound 289, (S)-3-benzoyl-N-(3,3-dimethyl-1-(methylamino)-1-oxobutan-2-yl)-7-methyl-5,6,7,8-tetrahydroimidazo[1,5-a]pyrazine-1-carboxamide]
- EC50 [1]: > 10000 nM
- +/− RCB2 [2]: −

SMILES: CNC(=O)[C@@H](NC(=O)c1nc(C(=O)Nc2ccccc2)n2c1CN(C)CC2)C(C)(C)C [Compound 290, (S)-N1-(3,3-dimethyl-1-(methylamino)-1-oxobutan-2-yl)-7-methyl-N3-phenyl-5,6,7,8-tetrahydroimidazo[1,5-a]pyrazine-1,3-dicarboxamide]
- EC50 [1]: > 10000 nM
- +/− RCB2 [2]: −

SMILES: CC(C)(C)CC(=O)c1nc(-c2ccccc2)n2c1CNCC2 [Compound 291, 3,3-dimethyl-1-(3-phenyl-5,6,7,8-tetrahydroimidazo[1,5-a]pyrazin-1-yl)butan-1-one 2,2,2-trifluoroacetate]
- EC50 [1]: > 10000 nM
- +/− RCB2 [2]: −

SMILES: CN1CCn2c(-c3ccccc3)nc(C(=O)CC(C)(C)C)c2C1 [Compound 292, 3,3-dimethyl-1-(7-methyl-3-phenyl-5,6,7,8-tetrahydroimidazo[1,5-a]pyrazin-1-yl)butan-1-one]
- EC50 [1, 3]: > 10000 nM
- +/− RCB2 [2]: −

SMILES: CC(C)=CC(=O)c1nc(-c2ccccc2)n2c1CN(C)CC2 [Compound 293, 3-methyl-1-(7-methyl-3-phenyl-5,6,7,8-tetrahydroimidazo[1,5-a]pyrazin-1-yl)but-2-en-1-one]
- EC50 [1, 3]: > 10000 nM
- +/− RCB2 [2]: −

SMILES: CN1CCn2c(-c3ccccc3)nc(C(=O)CCCc3ccccc3)c2C1 [Compound 294, 1-(7-methyl-3-phenyl-5,6,7,8-tetrahydroimidazo[1,5-a]pyrazin-1-yl)-4-phenylbutan-1-one]
- EC50 [1, 3]: > 10000 nM
- +/− RCB2 [2]: −

SMILES: CNC(=O)[C@@H](NC(=O)c1nc(C(O)c2ccccc2)n2c1CN(C)CC2)C(C)(C)C (stereo partly drawn) [Compound 295, N-((S)-3,3-dimethyl-1-(methylamino)-1-oxobutan-2-yl)-3-(hydroxy(phenyl)methyl)-7-methyl-5,6,7,8-tetrahydroimidazo[1,5-a]pyrazine-1-carboxamide]
- EC50 [1]: > 10000 nM
- EC50 [2]: > 10 µM

SMILES: CNC(=O)[C@@H](NC(=O)c1nc(C(O)C2CC2)n2c1CN(C)CC2)C(C)(C)C (stereo partly drawn) [Compound 296, 3-(cyclopropyl(hydroxy)methyl)-N-((S)-3,3-dimethyl-1-(methylamino)-1-oxobutan-2-yl)-7-methyl-5,6,7,8-tetrahydroimidazo[1,5-a]pyrazine-1-carboxamide]
- EC50 [1]: > 10000 nM
- +/− RCB2 [2]: +

SMILES: CNC(=O)[C@@H](NC(=O)c1nc(-c2nccs2)n2c1CN(C)CC2)C(C)(C)C [Compound 297, (S)-N-(3,3-dimethyl-1-(methylamino)-1-oxobutan-2-yl)-7-methyl-3-(thiazol-2-yl)-5,6,7,8-tetrahydroimidazo[1,5-a]pyrazine-1-carboxamide]
- EC50 [1]: > 10000 nM
- +/− RCB2 [2]: +

SMILES: CNC(=O)[C@@H](NC(=O)c1nc(-c2ccccc2)n2c1CN(c1ncccn1)CC2)C(C)(C)C [Compound 298, N-(3,3-dimethyl-1-(methylamino)-1-oxobutan-2-yl)-3-phenyl-7-(pyrimidin-2-yl)-5,6,7,8-tetrahydroimidazo[1,5-a]pyrazine-1-carboxamide]
- +/− HCB1 [1]: +
- +/− RCB2 [2]: +

SMILES: CNC(=O)[C@@H](NC(=O)c1nc(-c2ccccc2)n2c1CN(c1cccc(Cl)n1)CC2)C(C)(C)C [Compound 299, (S)-7-(6-chloropyridin-2-yl)-N-(3,3-dimethyl-1-(methylamino)-1-oxobutan-2-yl)-3-phenyl-5,6,7,8-tetrahydroimidazo[1,5-a]pyrazine-1-carboxamide]
- +/− HCB1 [1]: +
- +/− RCB2 [2]: −

SMILES: CNC(=O)[C@@H](NC(=O)c1nc(-c2ccccc2)n2c1CN(c1cncc(Cl)n1)CC2)C(C)(C)C [Compound 300, (S)-7-(6-chloropyrazin-2-yl)-N-(3,3-dimethyl-1-(methylamino)-1-oxobutan-2-yl)-3-phenyl-5,6,7,8-tetrahydroimidazo[1,5-a]pyrazine-1-carboxamide]
- +/− HCB1 [1]: +
- +/− RCB2 [2]: −
